Results published in patent US20120094998A1, “Oligomer-Protein Tyrosine Kinase Inhibitor Conjugates” (Nektar Therapeutics, priority 2009, published 2012).
Like-named read-outs stand apart in the source and are kept apart here.

Columns and labels:
Format in all cases: biochemical
PRAK = target: T1, PRAK (Homo sapiens, UniProt Q8IW41); test: Activity against various protein tyrosine kinases: PRAK; conditions: for inhibition at 0.01 µM: 10 nM
T1 sequence (Q8IW41 1-473): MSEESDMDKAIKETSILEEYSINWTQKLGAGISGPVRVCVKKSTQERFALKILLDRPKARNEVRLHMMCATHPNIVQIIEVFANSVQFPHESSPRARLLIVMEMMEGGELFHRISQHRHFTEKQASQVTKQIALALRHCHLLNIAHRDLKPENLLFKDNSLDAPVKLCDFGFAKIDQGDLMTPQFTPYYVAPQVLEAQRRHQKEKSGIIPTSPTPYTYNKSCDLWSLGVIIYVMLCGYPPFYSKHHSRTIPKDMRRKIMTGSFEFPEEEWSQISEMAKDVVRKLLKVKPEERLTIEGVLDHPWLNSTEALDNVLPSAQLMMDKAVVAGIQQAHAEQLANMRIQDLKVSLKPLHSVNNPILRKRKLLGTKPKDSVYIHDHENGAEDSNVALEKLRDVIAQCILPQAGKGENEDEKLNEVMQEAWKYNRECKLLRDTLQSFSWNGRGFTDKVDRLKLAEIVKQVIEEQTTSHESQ
Experimental: (§1) Using techniques know those of ordinary skill in the art, compounds were tested for activity against various protein tyrosine kinases.

CaMKII (gamma) = CaMKII (gamma) (Homo sapiens, UniProt Q13555); test: Activity against various protein tyrosine kinases: CaMKII (gamma); conditions: for inhibition at 0.01 µM: 10 nM
Experimental: as §1

TSSK2 = target: T2, TSSK2 (Homo sapiens, UniProt Q96PF2); test: Activity against various protein tyrosine kinases: TSSK2; conditions: for inhibition at 0.01 µM: 10 nM
T2 sequence (Q96PF2 1-358): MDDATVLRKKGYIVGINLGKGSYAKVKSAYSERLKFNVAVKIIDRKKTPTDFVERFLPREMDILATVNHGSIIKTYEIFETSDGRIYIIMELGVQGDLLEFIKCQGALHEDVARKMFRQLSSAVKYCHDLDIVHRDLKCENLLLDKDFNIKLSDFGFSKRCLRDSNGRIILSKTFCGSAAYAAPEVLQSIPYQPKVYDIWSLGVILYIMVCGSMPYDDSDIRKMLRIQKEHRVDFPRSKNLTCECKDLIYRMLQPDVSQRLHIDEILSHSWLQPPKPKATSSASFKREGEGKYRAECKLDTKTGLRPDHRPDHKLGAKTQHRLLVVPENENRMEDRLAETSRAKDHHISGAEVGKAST
Experimental: as §1

TSSK1 = target: T3, TSSK1 (Homo sapiens, UniProt Q9BXA7); test: Activity against various protein tyrosine kinases: TSSK1; conditions: for inhibition at 0.01 µM: 10 nM
T3 sequence (Q9BXA7 1-367): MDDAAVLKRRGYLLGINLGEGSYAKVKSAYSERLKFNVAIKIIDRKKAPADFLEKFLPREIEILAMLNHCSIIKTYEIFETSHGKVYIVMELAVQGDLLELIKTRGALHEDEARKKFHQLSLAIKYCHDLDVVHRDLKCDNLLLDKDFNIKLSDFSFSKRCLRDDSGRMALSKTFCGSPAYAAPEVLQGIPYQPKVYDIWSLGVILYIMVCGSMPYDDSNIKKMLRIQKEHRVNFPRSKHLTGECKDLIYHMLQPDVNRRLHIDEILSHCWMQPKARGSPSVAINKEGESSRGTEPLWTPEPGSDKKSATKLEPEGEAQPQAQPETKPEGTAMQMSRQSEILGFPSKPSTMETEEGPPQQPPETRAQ
Experimental: as §1

p38-beta2 = p38-beta2 (Homo sapiens, UniProt Q15759); test: Activity against various protein tyrosine kinases: p38-beta2; conditions: for inhibition at 0.01 µM: 10 nM
Experimental: as §1

ABL (H396P) = ABL (H396P) (Homo sapiens, UniProt P00519, H396P); test: Activity against various protein tyrosine kinases: ABL (H396P); conditions: for inhibition at 0.01 µM: read-out: % Inhibition at 10 nM; for inhibition at 1 µM: read-out: % Inhibition at 1 μM
Experimental: as §1

cKIT = cKIT (Homo sapiens, UniProt P10721); test: Activity against various protein tyrosine kinases: CKIT; parameters: purchased MILLIPORE 14-559; conditions: for inhibition at 0.01 µM: 10 nM
Experimental: as §1

FGFR2 = FGFR2 (Homo sapiens, UniProt P21802); test: Activity against various protein tyrosine kinases: FGFR2; conditions: for inhibition at 0.01 µM: 10 nM
Experimental: as §1

MAPKAPK2 = MAPKAPK2 (Homo sapiens, UniProt P49137); test: Activity against various protein tyrosine kinases: MAPKAPK2; conditions: for inhibition at 0.01 µM: 10 nM
Experimental: as §1

MSK1 = MSK1 (Homo sapiens, UniProt O75582); test: Activity against various protein tyrosine kinases: MSK1; conditions: for inhibition at 0.01 µM: 10 nM
Experimental: as §1

CK1d = CK1d (Homo sapiens, UniProt P48730); test: Activity against various protein tyrosine kinases: CK1d; conditions: for inhibition at 0.01 µM: 10 nM
Experimental: as §1

FGFR2 (N549H) = FGFR2 (N549H) (Homo sapiens, UniProt P21802, N549H); test: Activity against various protein tyrosine kinases: FGFR2 (N549H); conditions: for inhibition at 0.01 µM: 10 nM
Experimental: as §1

Sequence of MSK1 (O75582 whole entry, species assumed): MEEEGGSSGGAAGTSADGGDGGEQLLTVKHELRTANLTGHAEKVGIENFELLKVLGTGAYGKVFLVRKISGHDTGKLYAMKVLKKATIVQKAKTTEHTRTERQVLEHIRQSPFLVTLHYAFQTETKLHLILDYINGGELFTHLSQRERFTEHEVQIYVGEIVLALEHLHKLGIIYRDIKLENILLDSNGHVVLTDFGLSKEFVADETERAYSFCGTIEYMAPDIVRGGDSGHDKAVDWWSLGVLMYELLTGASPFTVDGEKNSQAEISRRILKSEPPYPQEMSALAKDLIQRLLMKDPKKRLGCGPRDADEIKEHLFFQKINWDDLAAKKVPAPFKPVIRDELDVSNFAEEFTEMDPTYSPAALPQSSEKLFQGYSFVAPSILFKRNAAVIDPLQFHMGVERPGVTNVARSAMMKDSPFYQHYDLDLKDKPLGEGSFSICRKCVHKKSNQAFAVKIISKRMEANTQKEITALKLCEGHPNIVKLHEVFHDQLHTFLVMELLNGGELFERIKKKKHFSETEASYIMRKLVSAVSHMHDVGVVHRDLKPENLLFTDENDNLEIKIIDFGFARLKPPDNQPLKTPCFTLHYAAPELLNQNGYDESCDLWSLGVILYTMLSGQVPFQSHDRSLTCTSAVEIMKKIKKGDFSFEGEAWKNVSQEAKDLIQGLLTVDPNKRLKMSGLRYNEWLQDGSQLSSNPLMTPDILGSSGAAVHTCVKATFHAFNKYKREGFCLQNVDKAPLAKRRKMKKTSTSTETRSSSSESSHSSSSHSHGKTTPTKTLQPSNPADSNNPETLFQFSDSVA
Sequence of p38-beta2 (Q15759 whole entry): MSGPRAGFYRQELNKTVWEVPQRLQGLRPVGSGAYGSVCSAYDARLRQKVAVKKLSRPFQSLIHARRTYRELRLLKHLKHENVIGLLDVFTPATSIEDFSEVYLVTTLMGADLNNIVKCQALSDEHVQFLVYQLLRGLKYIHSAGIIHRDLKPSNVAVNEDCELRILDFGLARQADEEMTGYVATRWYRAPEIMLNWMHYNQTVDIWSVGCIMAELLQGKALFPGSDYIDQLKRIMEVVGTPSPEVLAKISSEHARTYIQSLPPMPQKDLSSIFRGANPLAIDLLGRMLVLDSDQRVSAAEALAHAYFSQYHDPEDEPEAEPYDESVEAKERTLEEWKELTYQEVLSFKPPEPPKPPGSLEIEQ
Sequence of CaMKII (gamma) (Q13555 whole entry, species assumed): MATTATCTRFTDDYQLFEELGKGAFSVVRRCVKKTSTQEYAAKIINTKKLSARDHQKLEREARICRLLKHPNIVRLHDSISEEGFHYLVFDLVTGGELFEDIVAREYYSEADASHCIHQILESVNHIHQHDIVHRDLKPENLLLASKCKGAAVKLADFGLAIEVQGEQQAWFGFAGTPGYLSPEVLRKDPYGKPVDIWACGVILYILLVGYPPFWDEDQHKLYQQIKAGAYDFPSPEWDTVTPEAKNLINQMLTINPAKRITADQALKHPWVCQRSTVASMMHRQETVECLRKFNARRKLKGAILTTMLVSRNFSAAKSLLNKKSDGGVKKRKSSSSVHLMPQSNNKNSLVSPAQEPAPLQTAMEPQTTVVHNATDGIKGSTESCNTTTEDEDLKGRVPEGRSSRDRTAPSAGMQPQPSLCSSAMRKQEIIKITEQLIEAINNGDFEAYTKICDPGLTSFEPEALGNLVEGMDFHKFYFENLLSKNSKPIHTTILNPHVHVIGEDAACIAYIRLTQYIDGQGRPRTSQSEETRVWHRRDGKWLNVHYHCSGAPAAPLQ
Sequence of FGFR2 (N549H) (P21802 22-821 N549H, species assumed): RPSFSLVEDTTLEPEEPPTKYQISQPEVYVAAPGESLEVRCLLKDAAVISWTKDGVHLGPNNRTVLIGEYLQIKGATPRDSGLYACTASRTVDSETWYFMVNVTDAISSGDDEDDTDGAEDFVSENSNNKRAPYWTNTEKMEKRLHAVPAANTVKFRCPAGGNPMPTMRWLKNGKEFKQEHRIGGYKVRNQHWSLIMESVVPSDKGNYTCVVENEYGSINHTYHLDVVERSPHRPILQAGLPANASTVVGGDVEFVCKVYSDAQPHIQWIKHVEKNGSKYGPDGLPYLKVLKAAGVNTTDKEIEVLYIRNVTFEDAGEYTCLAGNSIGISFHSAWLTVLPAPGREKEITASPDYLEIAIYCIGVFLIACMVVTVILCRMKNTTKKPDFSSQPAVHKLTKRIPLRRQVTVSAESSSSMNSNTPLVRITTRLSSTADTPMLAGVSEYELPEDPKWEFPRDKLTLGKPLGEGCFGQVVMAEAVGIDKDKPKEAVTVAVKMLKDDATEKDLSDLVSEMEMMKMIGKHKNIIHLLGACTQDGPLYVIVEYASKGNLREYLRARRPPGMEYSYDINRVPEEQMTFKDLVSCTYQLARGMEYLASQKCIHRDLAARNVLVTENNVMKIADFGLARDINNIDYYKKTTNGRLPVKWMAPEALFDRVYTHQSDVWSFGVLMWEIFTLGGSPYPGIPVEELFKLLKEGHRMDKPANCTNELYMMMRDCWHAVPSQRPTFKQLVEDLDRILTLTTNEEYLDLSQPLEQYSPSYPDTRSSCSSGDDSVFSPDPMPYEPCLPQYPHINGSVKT
Sequence of MAPKAPK2 (P49137 whole entry, species assumed): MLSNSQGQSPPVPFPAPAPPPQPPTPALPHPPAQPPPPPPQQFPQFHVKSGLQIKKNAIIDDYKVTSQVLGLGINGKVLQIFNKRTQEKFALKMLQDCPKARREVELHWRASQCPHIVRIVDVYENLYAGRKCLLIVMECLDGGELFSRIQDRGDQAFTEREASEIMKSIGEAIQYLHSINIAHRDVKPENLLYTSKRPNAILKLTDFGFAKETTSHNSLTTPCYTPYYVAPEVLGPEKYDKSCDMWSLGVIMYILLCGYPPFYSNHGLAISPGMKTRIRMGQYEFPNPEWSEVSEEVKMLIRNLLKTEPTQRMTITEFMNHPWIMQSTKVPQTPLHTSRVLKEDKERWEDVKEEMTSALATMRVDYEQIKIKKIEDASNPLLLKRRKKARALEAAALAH
Sequence of cKIT (P10721 26-976): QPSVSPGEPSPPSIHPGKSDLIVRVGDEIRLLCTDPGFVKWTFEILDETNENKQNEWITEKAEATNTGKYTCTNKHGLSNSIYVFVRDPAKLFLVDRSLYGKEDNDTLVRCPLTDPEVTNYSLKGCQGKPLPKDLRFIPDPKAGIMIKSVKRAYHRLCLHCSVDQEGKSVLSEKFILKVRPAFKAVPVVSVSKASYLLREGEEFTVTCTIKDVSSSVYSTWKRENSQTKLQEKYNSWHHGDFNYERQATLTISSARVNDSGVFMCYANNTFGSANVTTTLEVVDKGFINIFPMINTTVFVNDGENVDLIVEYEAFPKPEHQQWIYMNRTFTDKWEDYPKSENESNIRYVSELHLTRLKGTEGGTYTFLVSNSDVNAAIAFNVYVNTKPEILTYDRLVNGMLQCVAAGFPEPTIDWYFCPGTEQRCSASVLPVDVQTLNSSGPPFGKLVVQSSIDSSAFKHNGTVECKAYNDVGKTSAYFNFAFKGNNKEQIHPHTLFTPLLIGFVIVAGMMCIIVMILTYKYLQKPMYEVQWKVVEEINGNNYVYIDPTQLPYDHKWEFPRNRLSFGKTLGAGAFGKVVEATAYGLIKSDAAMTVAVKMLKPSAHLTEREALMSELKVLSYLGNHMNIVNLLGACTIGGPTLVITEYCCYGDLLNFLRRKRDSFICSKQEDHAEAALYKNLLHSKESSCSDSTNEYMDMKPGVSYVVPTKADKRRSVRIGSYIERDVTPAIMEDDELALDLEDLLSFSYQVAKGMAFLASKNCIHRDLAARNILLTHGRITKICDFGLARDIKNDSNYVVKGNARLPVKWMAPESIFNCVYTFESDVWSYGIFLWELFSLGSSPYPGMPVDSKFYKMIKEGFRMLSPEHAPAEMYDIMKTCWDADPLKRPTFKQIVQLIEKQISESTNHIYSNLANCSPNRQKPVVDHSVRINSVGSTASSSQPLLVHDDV
Sequence of FGFR2 (P21802 22-821, species assumed): as the sequence (P21802 22-821 N549H, species assumed) above, with H528N counted along it
Sequence of CK1d (P48730 whole entry): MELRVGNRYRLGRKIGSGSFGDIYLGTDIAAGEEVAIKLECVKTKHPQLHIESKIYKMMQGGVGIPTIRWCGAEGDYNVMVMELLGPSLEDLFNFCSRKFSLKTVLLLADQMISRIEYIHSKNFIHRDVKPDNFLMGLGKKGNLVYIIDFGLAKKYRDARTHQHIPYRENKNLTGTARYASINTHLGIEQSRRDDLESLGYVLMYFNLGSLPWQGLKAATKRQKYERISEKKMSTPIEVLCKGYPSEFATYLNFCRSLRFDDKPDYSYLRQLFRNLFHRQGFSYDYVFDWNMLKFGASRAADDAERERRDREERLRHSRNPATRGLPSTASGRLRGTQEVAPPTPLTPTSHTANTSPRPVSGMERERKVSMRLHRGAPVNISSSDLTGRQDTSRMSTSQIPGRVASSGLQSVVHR

inhibition at 0.01 µM (PRAK) [%]	inhibition at 1 µM (PRAK) [%]	inhibition at 0.01 µM (CaMKII (gamma)) [%]	inhibition at 1 µM (CaMKII (gamma)) [%]	inhibition at 0.01 µM (TSSK2) [%]	inhibition at 1 µM (TSSK2) [%]	inhibition at 0.01 µM (TSSK1) [%]	inhibition at 1 µM (TSSK1) [%]	inhibition at 0.01 µM (p38-beta2) [%]	inhibition at 1 µM (p38-beta2) [%]	inhibition at 0.01 µM (cKIT) [%]	inhibition at 1 µM (cKIT) [%]	inhibition at 0.01 µM (FGFR2) [%]	inhibition at 1 µM (FGFR2) [%]	inhibition at 0.01 µM (MAPKAPK2) [%]	inhibition at 1 µM (MAPKAPK2) [%]	inhibition at 1 µM (MSK1) [%]	inhibition at 0.01 µM (CK1d) [%]	inhibition at 0.01 µM (FGFR2 (N549H)) [%]	inhibition at 1 µM (FGFR2 (N549H)) [%]	SMILES	also measured
8	0	6	3	3	-2	-3	-5	0	35	34	100	5	35	3	7	5	0	5	63	COCCOCCOCCOCCOCCOCCOCCNC(=O)OCCN1CCN(c2cc(Nc3ncc(C(=O)Nc4c(C)cccc4Cl)s3)nc(C)n2)CC1 [mPEG7-NHCOO-Dasatinib]	inhibition at 0.01 µM (ABL (H396P); ABL (H396P), 10 nM): 99%; inhibition at 1 µM (ABL (H396P); ABL (H396P), 1 μM): 99%; inhibition at 0.01 µM (MSK1): 3%; inhibition at 1 µM (CK1d): 9%
6	4	2	2	-1	0	-1	0	3	48	34	100	-2	38	1	-1	1	1	7	75	COCCOCCOCCNC(=O)OCCN1CCN(c2cc(Nc3ncc(C(=O)Nc4c(C)cccc4Cl)s3)nc(C)n2)CC1 [mPEG3-NHCOO-Dasatinib]	inhibition at 0.01 µM (ABL (H396P)): 99%; inhibition at 1 µM (ABL (H396P)): 99%; inhibition at 0.01 µM (MSK1): 2%; inhibition at 1 µM (CK1d): 3%

SMILES	inhibition at 0.01 µM (PRAK) [%]	inhibition at 1 µM (PRAK) [%]	inhibition at 0.01 µM (CaMKII (gamma)) [%]	inhibition at 1 µM (CaMKII (gamma)) [%]	inhibition at 0.01 µM (TSSK2) [%]	inhibition at 1 µM (TSSK2) [%]	inhibition at 0.01 µM (TSSK1) [%]	inhibition at 1 µM (TSSK1) [%]	inhibition at 0.01 µM (p38-beta2) [%]	inhibition at 1 µM (p38-beta2) [%]	inhibition at 0.01 µM (cKIT) [%]	inhibition at 1 µM (cKIT) [%]	inhibition at 0.01 µM (FGFR2) [%]	inhibition at 1 µM (FGFR2) [%]	inhibition at 0.01 µM (MAPKAPK2) [%]	inhibition at 1 µM (MAPKAPK2) [%]	inhibition at 1 µM (MSK1) [%]	inhibition at 0.01 µM (CK1d) [%]	inhibition at 0.01 µM (FGFR2 (N549H)) [%]	inhibition at 1 µM (FGFR2 (N549H)) [%]	also measured
Cc1nc(Nc2ncc(C(=O)Nc3c(C)cccc3Cl)s2)cc(N2CCN(CCO)CC2)n1 [Dasatinib, reference compound]	-2		5		-3		-5	-6	-2	34	30		3	36			3	1	6	71	
